Results on seven compounds are retold here after DBAASP.

Values after ≈ are worked out from the molar mass of the structure shown.

Some test systems named below: Escherichia coli ML-35; Escherichia coli HB101; Escherichia coli O157:H7; Vibrio cholerae non-O139; Vibrio cholerae non-O1; Bacillus megaterium Bm11; Escherichia coli D21; Staphylococcus capitis 1; Acinetobacter junii RT-4; Saccharomyces cerevisiae.
What all share (assay): ≥ marks a high value that may be exact or a test limit, other limits are often not marked, values filed in µg/mL are converted to µM
For assay [1], the system named is Escherichia coli ATCC 25922.
In assay [2] the test system is Serratia marcescens ATCC 8100.
The test system of assay [3] is Staphylococcus aureus ATCC 25923.
Assay [4] has as its system Salmonella enterica subsp. enterica serovar Typhimurium ATCC 14028.
In assay [5] the test system is Candida albicans TIMM 1768.
The test system of assay [6] is Staphylococcus epidermidis KCTC 3096.
In assay [7] the test system is Saccharomyces cerevisiae KCTC 7296.
Assay [8] has as its system Bacillus subtilis KCTC 1918.
Assay [9] relates to Salmonella typhimurium KCTC 1926.
The subject of assay [10] is Trichosporon beigelii KCTC 7707.
The subject of assay [11] is Pseudomonas aeruginosa KCTC 1637.
For assay [12], the system named is Salmonella enterica subsp. enterica serovar Typhi DMST 22842.
Assay [13] relates to Pseudomonas aeruginosa ATCC 27853.
Assay [14] concerns Staphylococcus epidermidis ATCC 12228.
The subject of assay [15] is Pseudomonas syringae pv. tabaci 1918NCPPB.
The subject of assay [16] is Enterococcus faecalis ATCC 29212.
The test system of assay [17] is Acinetobacter baumannii ATCC 19606.
In assay [18] the test system is Streptococcus pyogenes ATCC 21547.
Assay [19] deals with Pseudomonas aeruginosa ATCC 15692.
In assay [20] the test system is Schizosaccharomyces pombe.
The subject of assay [21] is Yersinia pseudotuberculosis YPIII.
The test system of assay [22] is Candida albicans ATCC 10231.
In assay [23] the test system is Staphylococcus aureus Cowan 1.
Assay [24] deals with Corynebacterium glutamicum ATCC 13032.
For assay [25], the system named is Staphylococcus aureus ATCC 9144.

With `CC[C@H](C)[C@H](NC(=O)[C@@H]1CCCN1C(=O)[C@H](CCCN=C(N)N)NC(=O)[C@@H]1CCCN1C(=O)CNC(=O)[C@@H]1CCCN1C(=O)[C@H](CCCN=C(N)N)NC(=O)[C@@H]1CCCN1C(=O)[C@H](Cc1ccccc1)NC(=O)[C@@H]1CCCN1C(=O)[C@H](CC(C)C)NC(=O)[C@@H]1CCCN1C(=O)[C@H](CCCN=C(N)N)NC(=O)[C@@H]1CCCN1C(=O)[C@@H](NC(=O)[C@@H]1CCCN1C(=O)[C@H](CCCN=C(N)N)NC(=O)[C@@H]1CCCN1C(=O)CNC(=O)[C@@H]1CCCN1C(=O)[C@H](CCCN=C(N)N)NC(=O)[C@@H]1CCCN1C(=O)[C@H](Cc1ccccc1)NC(=O)[C@@H]1CCCN1C(=O)[C@H](CC(C)C)NC(=O)[C@@H]1CCCN1C(=O)[C@H](CCCN=C(N)N)NC(=O)[C@@H]1CCCN1)[C@@H](C)CC)C(=O)O` [PRPLPFPRPGPRPIPRPLPFPRPGPRPI], the MIC (in general, the lowest concentration that inhibits growth of the organism) against Escherichia coli ML-35 is no less than 128 µM; in assay [1] it was greater than 128 µM; in assay [2], no less than 128 µM; in assay [3] it was greater than 128 µM; in assay [4], greater than 128 µM.
In the case of `CC(C)C[C@H](NC(=O)[C@H](CCCCN)NC(=O)[C@H](CCCCN)NC(=O)[C@H](CC(C)C)NC(=O)[C@H](CC(C)C)NC(=O)[C@H](CCCCN)NC(=O)[C@H](CCCCN)NC(=O)[C@H](CC(C)C)NC(=O)[C@H](CC(C)C)NC(=O)[C@@H]1CCCN1C(=O)[C@H](CCCCN)NC(=O)[C@H](CC(C)C)NC(=O)[C@H](CCCCN)NC(=O)[C@H](Cc1c[nH]c2ccccc12)NC(=O)[C@@H](N)CCCCN)C(N)=O` [KWKLKPLLKKLLKKL], the minimal inhibitory concentration (MIC) in assay [5] stood at 12.5 µM (≈ 23.5 µg/mL); in assay [6] it was 1.6 µM (≈ 3 µg/mL); in assay [7], 12.5 µM (≈ 23.5 µg/mL); in assay [8], 3.1 µM (≈ 5.82 µg/mL); in assay [9] it was 0.2 µM (≈ 0.375 µg/mL); in [10], 1.6 µM (≈ 3 µg/mL). In assay [11], this compound came in with an MIC of 3.1 µM (≈ 5.82 µg/mL).
Consider `CC[C@H](C)[C@H](NC(=O)[C@H](CCCN=C(N)N)NC(=O)[C@@H](N)CCCN=C(N)N)C(=O)N[C@@H](CCCN=C(N)N)C(=O)N1CCC[C@H]1C(=O)N[C@@H](CCCN=C(N)N)C(=O)N1CCC[C@H]1C(=O)N1CCC[C@H]1C(=O)N[C@@H](CCCN=C(N)N)C(=O)N[C@@H](CC(C)C)C(=O)N1CCC[C@H]1C(=O)N[C@@H](CCCN=C(N)N)C(=O)N1CCC[C@H]1C(=O)O` [RRIRPRPPRLPRP], for which the MIC is no less than 128 µM against Escherichia coli ML-35; no less than 90.5 µM against Escherichia coli HB101; greater than 128 µM in [1]; no less than 128 µM in assay [2]; greater than 128 µM in assay [3]; greater than 128 µM in assay [4].
As for `CC(C)C[C@H](NC(=O)[C@H](CCCCN)NC(=O)[C@H](CC(C)C)NC(=O)[C@H](CCCCN)NC(=O)[C@H](CC(C)C)NC(=O)[C@@H]1CCCN1C(=O)[C@H](CCCCN)NC(=O)[C@H](CCCCN)NC(=O)[C@H](CC(C)C)NC(=O)[C@H](CC(C)C)NC(=O)[C@H](CCCCN)NC(=O)[C@H](CCCCN)NC(=O)[C@H](Cc1c[nH]c2ccccc12)NC(=O)[C@@H](N)CCCCN)C(N)=O` [KWKKLLKKPLKLKL], the MIC came out at 12.5 µM (≈ 22 µg/mL) in [5]; 3.1 µM (≈ 5.47 µg/mL) in assay [6]; 12.5 µM (≈ 22 µg/mL) in assay [7]; 3.1 µM (≈ 5.47 µg/mL) in assay [8]; 0.2 µM (≈ 0.353 µg/mL) in assay [9]; 3.1 µM (≈ 5.47 µg/mL) in assay [10]. Further, in assay [11], the MIC worked out at 3.1 µM (≈ 5.47 µg/mL).
`CC(C)[C@H](NC(=O)CNC(=O)[C@@H](N)CC(N)=O)C(=O)N[C@@H](CCC(N)=O)C(=O)N1CCC[C@H]1C(=O)N[C@@H](CCCCN)C(=O)N[C@@H](Cc1ccc(O)cc1)C(=O)N[C@@H](CCCCN)C(=O)N[C@@H](Cc1c[nH]c2ccccc12)C(=O)N[C@@H](Cc1c[nH]c2ccccc12)C(=O)N[C@@H](CCCCN)C(=O)N[C@@H](Cc1c[nH]c2ccccc12)C(=O)N[C@@H](Cc1c[nH]c2ccccc12)C(=O)N[C@@H](CCCCN)C(=O)N[C@@H](CCCCN)C(=O)N[C@@H](Cc1c[nH]c2ccccc12)C(=O)N[C@@H](Cc1c[nH]c2ccccc12)C(N)=O` [NGVQPKYKWWKWWKKWW]: the minimum inhibitory concentration (MIC) was found to be 4.52 µM (≈ 11 µg/mL) in the assay on Escherichia coli O157:H7; 9.45 µM (≈ 23 µg/mL) in assay [12]; 37.4 µM (≈ 91 µg/mL) in assay [13]; 4.52 µM (≈ 11 µg/mL) in [1]; 4.52 µM (≈ 11 µg/mL) in the assay with Vibrio cholerae non-O139; 18.9 µM (≈ 46 µg/mL) in assay [3]. Further, the figures for the MIC (against Vibrio cholerae non-O1; in assay [14]) were 4.52 µM (≈ 11 µg/mL) and 9.45 µM (≈ 23 µg/mL), respectively.
As to `CC[C@H](C)[C@H](NC(=O)[C@H](CCCN=C(N)N)NC(=O)CNC(=O)[C@H](CC(C)C)NC(=O)[C@H](Cc1ccccc1)NC(=O)[C@H](CCCN=C(N)N)NC(=O)[C@H](CO)NC(=O)[C@H](Cc1ccccc1)NC(=O)[C@H](Cc1c[nH]c2ccccc12)NC(=O)[C@H](CCC(N)=O)NC(=O)[C@@H](NC(=O)[C@@H](N)Cc1ccccc1)C(C)C)C(=O)N[C@@H](CC(C)C)C(N)=O` [FVQWFSRFLGRIL], the MIC stood at 12 µM (≈ 20 µg/mL) in [15]; 12 µM (≈ 20 µg/mL) in [16]; 48 µM (≈ 80.1 µg/mL) in [13]; 6 µM (≈ 10 µg/mL) with Bacillus megaterium Bm11; 12 µM (≈ 20 µg/mL) in assay [1]; 6 µM (≈ 10 µg/mL) in assay [17]. The MIC was 6 µM (≈ 10 µg/mL) in assay [18]; 24 µM (≈ 40 µg/mL) in [19]; no less than 48 µM in the assay with Escherichia coli D21; 6 µM (≈ 10 µg/mL) against Staphylococcus capitis 1; 6 µM (≈ 10 µg/mL) in assay [3]; 6 µM (≈ 10 µg/mL) in assay [20]. In addition, the MIC against Acinetobacter junii RT-4 amounted to 6 µM (≈ 10 µg/mL); with Saccharomyces cerevisiae, 12 µM (≈ 20 µg/mL); in [21], 6 µM (≈ 10 µg/mL); in assay [14], 6 µM (≈ 10 µg/mL); in assay [22], 12 µM (≈ 20 µg/mL); in assay [23], 6 µM (≈ 10 µg/mL).
As for `CC[C@H](C)[C@H](NC(=O)[C@H](CCCN=C(N)N)NC(=O)[C@@H]1CCCN1C(=O)[C@@H]1CCCN1C(=O)[C@H](CC(C)C)NC(=O)[C@H](CCCN=C(N)N)NC(=O)[C@@H]1CCCN1C(=O)[C@@H]1CCCN1C(=O)[C@H](Cc1ccccc1)NC(=O)[C@H](Cc1ccccc1)NC(=O)[C@@H]1CCCN1C(=O)[C@@H]1CCCN1C(=O)[C@@H]1CCCN1C(=O)[C@H](CCCN=C(N)N)NC(=O)[C@@H]1CCCN1C(=O)[C@H](CCCN=C(N)N)NC(=O)[C@@H]1CCCN1C(=O)[C@H](CC(C)C)NC(=O)[C@H](Cc1ccc(O)cc1)NC(=O)[C@@H]1CCCN1C(=O)[C@@H]1CCCN1C(=O)[C@H](CCCN=C(N)N)NC(=O)[C@@H]1CCCN1C(=O)[C@H](CCCN=C(N)N)NC(=O)[C@H](CCCN=C(N)N)NC(=O)[C@@H](N)CCCN=C(N)N)C(=O)O` [RRRPRPPYLPRPRPPPFFPPRLPPRI], the MIC in [24] is 0.4 µM (≈ 1.29 µg/mL); with Escherichia coli HB101, 1.13 µM (≈ 3.65 µg/mL); in assay [13] it was 4.42 µM (≈ 14.3 µg/mL); in assay [25], no less than 50 µM; in assay [1] it was 1.13 µM (≈ 3.65 µg/mL).
